Where a name gives a salt, the structure may show the parent alone. Read-outs that look alike come from different tables or passages of the source.
Assays:
Format in all cases: cell-based
E. coli UBMS 88-1 Tet B = assay: microbe, parasite or virus in culture; settings: 18 hours at 35° C.
[1] = test system: E. coli MC 4100 Tet sens.; assay: MIC, agar dilution method; settings: 18 hours at 35° C.
E. coli PRP1 Tet A = assay: microbe, parasite or virus in culture; settings: 18 hours at 35° C.
[2] = test system: E. coli MC 4100 TNIOC Tet B; assay: microbe, parasite or virus in culture; settings: 18 hours at 35° C.
E. coli J3272 Tet C = assay: microbe, parasite or virus in culture
E. coli UBMS 89-1 Tet M = assay: microbe, parasite or virus in culture; settings: 18 hours at 35° C.
[3] = test system: E. coli UBMS 89-2 Tet sens; assay: MIC, agar dilution method; settings: 18 hours at 35° C.
E. coli J2175 = assay: MIC, agar dilution method; settings: 18 hours at 35° C.
E. coli BAJ9003 IMP MUT = assay: microbe, parasite or virus in culture; settings: 18 hours at 35° C.
E. coli UBMS 90-4 Tet M = assay: microbe, parasite or virus in culture; settings: 18 hours at 35° C.
E. coli UBMS 90-5 sens = assay: MIC, agar dilution method; settings: 18 hours at 35° C.
E. coli #311 (MP) = assay: MIC, agar dilution method; settings: 18 hours at 35° C.
E. coli ATCC 25922 = assay: MIC, agar dilution method
E. coli J3272 Tet D = assay: microbe, parasite or virus in culture
S. mariescens FPOR 8733 = assay: MIC, agar dilution method; settings: 18 hours at 35° C.
[4] = test system: X. maltophilia NEMC 87210; assay: MIC, agar dilution method
[5] = test system: Ps. acruginosa ATCC 27853; assay: MIC, agar dilution method; settings: Ps. acruginosa ATCC 27853, 18 hours at 35° C.
S. aureus NEMC 8769 = assay: MIC, agar dilution method
S. aureus UBMS 88-4 = assay: MIC, agar dilution method
[6] = test system: S. aureus UBMS 88-5 Tet M; assay: microbe, parasite or virus in culture
[7] = test system: S. aureus UBMS 88-7 Tet K; assay: microbe, parasite or virus in culture; settings: 18 hours at 35° C.
[8] = test system: S. aureus UBMS 90-1 Tet M; assay: microbe, parasite or virus in culture; settings: 18 hours at 35° C.
S. aureus UBMS 90-3 = assay: MIC, agar dilution method
[9] = test system: S. aureus UBMS 90-2 Tet M; assay: microbe, parasite or virus in culture; settings: 18 hours at 35° C.
S. aureus IVES 2943 = assay: MIC, agar dilution method
S. aureus ROSE (MP) = assay: MIC, agar dilution method; settings: 18 hours at 35° C.
S. aureus SMITH (MP) = assay: MIC, agar dilution method; settings: 18 hours at 35° C.
S. aureus IVES 1 983 = assay: MIC, agar dilution method
S. aureus ATCC 29213 = assay: MIC, agar dilution method; settings: 18 hours at 35° C.
[10] = test system: S. hemolyticus AVHAH 88-3; assay: MIC, agar dilution method
Enterococcus 12201 = assay: MIC, agar dilution method; settings: 18 hours at 35° C.
E. faecalis ATCC 29212 = assay: MIC, agar dilution method
[11] = Escherichia coli, UBMS881TETB, 18 h
[12] = Escherichia coli, read-out: MIC
[13] = Escherichia coli, PRP1TETA, 18 h
[14] = Escherichia coli, J3272TETC, 18 h
[15] = Escherichia coli, UBMS891TETM, 18 h
[16] = Escherichia coli, UBMS892TETSENS, 18 h, read-out: MIC
[17] = Escherichia coli, BAJ9003IMPMUT, 18 h
[18] = Escherichia coli, UBMS904TETM, 18 h
[19] = Escherichia coli, UBMS905SENS, read-out: MIC
[20] = Escherichia coli, ATCC25922, 18 hours at 35° C., read-out: MIC
[21] = Escherichia coli, J3272TETD, 18 h
[22] = Staphylococcus aureus, NEMC8769, 18 h
[23] = Staphylococcus aureus, UBMS884, 18 hours at 35° C., read-out: MIC
[24] = Staphylococcus aureus, UBMS885TETM, 18 h
[25] = Staphylococcus aureus, UBMS887TETK, 18 h
[26] = Staphylococcus aureus, UBMS901TETM, 18 h
[27] = Staphylococcus aureus, UBMS903, 18 h
[28] = Staphylococcus aureus, UBMS902TETM, 18 h
[29] = Staphylococcus aureus, IVES2943, 18 h
[30] = Staphylococcus aureus, IVES1983, 18 h
[31] = Staphylococcus aureus, ATCC29213, 18 h

Measured: MIC

CCCNCC(=O)Nc1c(Cl)cc2c(c1O)C(=O)C1=C(O)[C@]3(O)C(=O)C(C(N)=O)=C(O)[C@@H](N(C)C)C3CC1C2 (stereo partly drawn) [F, [4S-(4α,12aα)]-8-Chloro-4-(dimethylamino)-1,4,4a,5,5a,6,11,12a-octahydro-3,10,12,12a-tetrahydroxy-1,11-dioxo-9-[[(propylamino)acetyl]amino]-2-naphthacenecarboxamide dihydrochloride]
8 µg/mL: S. mariescens FPOR 8733; read-out: MIC | [7]; [25] | S. aureus IVES 1 983; [30]
0.25 µg/mL: E. coli J3272 Tet D; [21] | S. aureus NEMC 8769; [22] | S. aureus UBMS 88-4; [23] | [9]; [28] | S. aureus SMITH (MP); Staphylococcus aureus, 18 h | S. aureus ATCC 29213; [31] | Enterococcus 12201; Enterococcus, 12201, 18 h
0.5 µg/mL: E. coli UBMS 88-1 Tet B; [11] | [2]; Escherichia coli, 18 h | E. coli UBMS 89-1 Tet M; [15] | E. coli UBMS 90-4 Tet M; [18] | E. coli UBMS 90-5 sens; [19] | E. coli #311 (MP); [12] | E. coli ATCC 25922; [20] | [6]; [24] | [8]; [26] | S. aureus UBMS 90-3; [27]
0.12 µg/mL: [1]; [12] | E. coli BAJ9003 IMP MUT; [17] | E. faecalis ATCC 29212; Enterococcus faecalis, ATCC29212, 18 hours at 35° C., read-out: MIC
32 µg/mL: [5]; read-out: MIC
16 µg/mL: S. aureus IVES 2943; [29] | S. aureus ROSE (MP); Staphylococcus aureus, 18 h
2 µg/mL: [4]; Stenotrophomonas maltophilia, NEMC87210, 18 hours at 35° C., read-out: MIC
4 µg/mL: E. coli PRP1 Tet A; [13] | [10]; Streptococcus pyogenes, AVHAH883, 18 hours at 35° C., read-out: MIC
1 µg/mL: E. coli J3272 Tet C; [14] | [3]; [16] | E. coli J2175; [12]

CN(C)C1C(O)=C(C(N)=O)C(=O)C2(O)C(O)=C3C(=O)c4c(cc(Cl)c(NC(=O)CNCC5CC5)c4O)CC3CC12.Cl.Cl (stereo not drawn) [G, [4S-(4α,12aα)]-8-Chloro-9-[[(cyclopropylmethylamino)acetyl]amino]-4-(dimethylamino)-1,4,4a,5,5a,6,11,12a-octahydro-3,10,12,12a-tetrahydroxy-1,11-dioxo-2-naphthacenecarboxamide dihydrochloride]
0.25 µg/mL: [1] | S. aureus ATCC 29213 | Enterococcus 12201 | E. faecalis ATCC 29212; 18 hours at 35° C.
8 µg/mL: S. mariescens FPOR 8733 | [7] | [10]; 18 hours at 35° C.
32 µg/mL: [5] | S. aureus ROSE (MP)
2 µg/mL: [8]
4 µg/mL: E. coli PRP1 Tet A | [4]; 18 hours at 35° C.
16 µg/mL: S. aureus IVES 2943; S. aureus IVES 2943, 18 hours at 35° C. | S. aureus IVES 1 983; S. aureus IVES 1 983, 18 hours at 35° C.
0.12 µg/mL: E. coli BAJ9003 IMP MUT | S. aureus UBMS 90-3; S. aureus UBMS 90-3, 18 hours at 35° C.
1 µg/mL: E. coli UBMS 88-1 Tet B | [2] | E. coli J3272 Tet C; E. coli J3272 Tet C, 18 hours at 35° C. | [3] | E. coli J2175 | E. coli UBMS 90-4 Tet M | E. coli UBMS 90-5 sens | E. coli #311 (MP) | E. coli ATCC 25922; 18 hours at 35° C. | E. coli J3272 Tet D; E. coli J3272 Tet D, 18 hours at 35° C.
0.5 µg/mL: E. coli UBMS 89-1 Tet M | S. aureus NEMC 8769; S. aureus NEMC 8769, 18 hours at 35° C. | S. aureus UBMS 88-4; 18 hours at 35° C. | [6]; S. aureus UBMS 88-5 Tet M, 18 hours at 35° C. | [9] | S. aureus SMITH (MP)

CCCCCNCC(=O)Nc1c(Cl)cc2c(c1O)C(=O)C1=C(O)[C@]3(O)C(=O)C(C(N)=O)=C(O)[C@@H](N(C)C)C3CC1C2 (stereo partly drawn) [H, [4S-(4α,12aα)]-8-Chloro-4-(dimethylamino)-1,4,4a,5,5a,6,11,12a-octahydro-3, 10,12,12a-tetrahydroxy-1,11-dioxo-9-[[(pentylamino)acetyl]amino]-2-naphthacenecarboxamide dihydrochloride]
4 µg/mL: [4]; Stenotrophomonas maltophilia, NEMC87210, 18 h, 18 hours at 35° C. | [7]; [25] | S. aureus IVES 1 983; [30] | [10]; Streptococcus pyogenes, AVHAH883, 18 h, 18 hours at 35° C.
0.12 µg/mL: E. faecalis ATCC 29212; Enterococcus faecalis, ATCC29212, 18 h, 18 hours at 35° C.
8 µg/mL: S. aureus IVES 2943; [29] | S. aureus ROSE (MP); Staphylococcus aureus, 18 h
0.25 µg/mL: [1]; [12] | E. coli BAJ9003 IMP MUT; [17] | S. aureus UBMS 90-3; [27] | [9]; [28] | Enterococcus 12201; Enterococcus, 12201, 18 h
2 µg/mL: E. coli UBMS 88-1 Tet B; [11] | E. coli PRP1 Tet A; [13] | [2]; Escherichia coli, 18 h | E. coli J3272 Tet C; [14] | [3]; [16] | E. coli J2175; [12] | E. coli UBMS 90-4 Tet M; [18] | E. coli UBMS 90-5 sens; [19] | E. coli #311 (MP); [12] | E. coli ATCC 25922; [20] | [8]; [26]
0.5 µg/mL: E. coli UBMS 89-1 Tet M; [15] | S. aureus NEMC 8769; [22] | S. aureus UBMS 88-4; [23] | S. aureus SMITH (MP); Staphylococcus aureus, read-out: MIC | S. aureus ATCC 29213; [31]
1 µg/mL: E. coli J3272 Tet D; [21] | [6]; [24]
16 µg/mL: S. mariescens FPOR 8733; 18 h
> 32 µg/mL: [5]; read-out: MIC

From patent publication US5495032A, “Process for producing 7-(substituted)-8-(substituted-9-[(substituted glycyl)amido]-6-demethyl-6-deoxytetracyclines” (priority 1994, dated 1996)
